Several values for one entry are separate records, joined by “and”; a condition that tells them apart may be missing. Identical values can stand only once. Entries after “also recorded” stand apart in the source; their conditions may differ. Like-named read-outs stand apart in the source and are kept apart here. Marks after values point to notes of the source that are not given here.
Legend:
[1] = format: in vivo, NSCLC patients; conditions: for AUC / Cmax: geomean; for Cmax: Cmax (CV %); for Cmax RD, PPI with milk vs. PPI with water (95% CI): n = 15
Adverse event monitoring = format: in vivo, NSCLC patients
[2] = cited from earlier work
[3] = cited from earlier work; remark: listed apart in the source
[4] = Milk [n = 30], without and with esomeprazole
[5] = Water [n = 29], without and with esomeprazole

SMILES: C#Cc1cccc(Nc2ncnc3cc(OCCOC)c(OCCOC)cc23)c1 [erlotinib]
- Tmax (IQR), median ([1]; No PPI with milk [n = 14]): 2.50 (2.00–3.00) hours
- Interpatient variability (CV) in AUC24 ([1]; PPI (esomeprazole), with milk): 38%
- Interpatient variability (CV) in AUC24 ([1]; PPI (esomeprazole), with water): 61%
- Increase in Tmax with milk vs water ([1]; both study arms, non-significant): 0.5 h
- Decrease in erlotinib AUC24 by esomeprazole ([1]; esomeprazole 40 mg once daily 3 h prior to erlotinib vs no esomeprazole, n = 9): 47% and ~50%
- AUC ([1]; human, plasma, oral, AUC24 (CV %), No PPI [n = 9], patients in both study arms, corrected for coadministration with milk): 20100 ng·h/mL
- AUC ([1]; human, plasma, oral, AUC24 (CV %), PPI [n = 9], patients in both study arms, corrected for coadministration with milk): 10600 ng·h/mL
- AUC ([1]; human, plasma, oral, AUC24 (CV%), No PPI with milk [n = 14]): 22400 ng·h/mL
- Cmax ([1]; human, plasma, oral, PPI [n = 9], patients in both study arms, corrected for coadministration with milk): 750 ng/mL
- Cmax ([1]; human, plasma, oral, PPI with milk [n = 15]): 820 ng/mL
- Tmax ([1]; human, plasma, po): 2.52 h
- AUC ([1]; human, plasma, po, AUC24 (CV%), No PPI with water [n = 14]): 23000 ng·h/mL
- Cmax ([1]; human, plasma, po, No PPI with water [n = 14]): 1850 ng/mL
- Cmax ([1]; human, plasma, po, PPI with water [n = 15]): 810 ng/mL
- Cmax RD, no-PPI with milk vs. no-PPI with water (95% CI) ([1]; n = 14): 6%
- Cmax RD, PPI with milk vs. PPI with water (95% CI) [1]: 1%
- Cmax RD, PPI with milk vs. PPI with water (95% CI) ([1]; listed as Erlotinib): 1.5% (− 12 to 17%)
- Interpatient variability (CV) in AUC24 ([1]; no PPI, with milk): 35%
- Interpatient variability (CV) in AUC24 ([1]; no PPI, with water): 37%
- Decrease in AUC24 when administered with milk compared with water ([1]; non-PPI patients, non-significant): 3%
- All events, Grade 1–2 (Adverse event monitoring; Baseline [n = 30]): 29 (97) n (%)
- Alopecia, Grade 1–2 (Adverse event monitoring; Baseline [n = 30]): 12 (40) n (%)
- Constipation, Grade 1–2 (Adverse event monitoring; Baseline [n = 30]): 5 (17) n (%)
- Diarrhea, Grade 1–2 (Adverse event monitoring; Baseline [n = 30]): 6 (20) n (%)
- Fatigue, Grade 1–2 (Adverse event monitoring; Baseline [n = 30]): 10 (33) n (%)
- Nausea, Grade 1–2 (Adverse event monitoring; Baseline [n = 30]): 1 (3) n (%)
- Pain, Grade 1–2 (Adverse event monitoring; Baseline [n = 30]): 5 (17) n (%)
- Rash, Grade 1–2 (Adverse event monitoring; Baseline [n = 30]): 23 (77) n (%)
- Serious adverse event, Grade 3 (Adverse event monitoring; Baseline [n = 30], spinal fracture, not related to study procedures): 1 (3%)^a n (%)
- All events, Grade 1–2 (Adverse event monitoring; [4]): 28 (93) n (%)
- All events, Grade 3 (Adverse event monitoring; [4]): 2 (6) n (%)
- Alopecia, Grade 1–2 (Adverse event monitoring; [4]): 11 (37) n (%)
- Constipation, Grade 1–2 (Adverse event monitoring; [4]): 3 (10) n (%)
- Diarrhea, Grade 1–2 (Adverse event monitoring; [4]): 3 (10) n (%)
- Fatigue, Grade 1–2 (Adverse event monitoring; [4]): 6 (20) n (%)
- Nausea, Grade 1–2 (Adverse event monitoring; [4]): 3 (10) n (%)
- Nausea, Grade 3 (Adverse event monitoring; [4]): 1 (3) n (%)
- Pain, Grade 1–2 (Adverse event monitoring; [4]): 9 (30) n (%)
- Rash, Grade 1–2 (Adverse event monitoring; [4]): 20 (67) n (%)
- Rash, Grade 3 (Adverse event monitoring; [4]): 1 (3) n (%)
- All events, Grade 1–2 (Adverse event monitoring; [5]): 28 (97) n (%)
- Alopecia, Grade 1–2 (Adverse event monitoring; [5]): 11 (38) n (%)
- Constipation, Grade 1–2 (Adverse event monitoring; [5]): 1 (3) n (%)
- Diarrhea, Grade 1–2 (Adverse event monitoring; [5]): 3 (10) n (%)
- Fatigue, Grade 1–2 (Adverse event monitoring; [5]): 10 (34) n (%)
- Nausea, Grade 1–2 (Adverse event monitoring; [5]): 3 (10) n (%)
- Pain, Grade 1–2 (Adverse event monitoring; [5]): 7 (24) n (%)
- Rash, Grade 1–2 (Adverse event monitoring; [5]): 18 (62) n (%)
- Difference in toxicities between milk and water periods (Adverse event monitoring; independent of study arm (with and without PPI)): No differences in toxicities were observed; also recorded: Patient-reported toxicity was equal between the milk and water groups, with and without proton pump inhibitors. Hence, cow’s milk can be used as a safe alternative to water for the administration of erlotinib. Concomitant treatment with esomeprazole should be avoided if possible
- Patient-reported adverse events during study compared with baseline (Adverse event monitoring; overall): did not increase compared with baseline
- Increase in exposure ([2]; administered concomitantly with a high-fat meal ref 3): 33–66%
- AUC increase ([2]; high-fat meal taken 2 h after erlotinib administration ref 22): 33%
- Increase in AUC ([2]; high-fat meal, food and drug taken concomitantly ref 23): 66%

SMILES: CS(=O)(=O)CCNCc1ccc(-c2ccc3ncnc(Nc4ccc(OCc5cccc(F)c5)c(Cl)c4)c3c2)o1 [lapatinib]
- AUC increase ([2]; with a high-fat meal ref 3): up to 325%
- AUC increase ([2]; with a low-fat meal ref 3): ≤ 200%

SMILES: Cc1cn(-c2cc(NC(=O)c3ccc(C)c(Nc4nccc(-c5cccnc5)n4)c3)cc(C(F)(F)F)c2)cn1 [nilotinib]
- Safety of coadministration with yoghurt [3]: considered safe
